Measured values published in publication PMC12206033, “Selective inhibition of TRPV3 channel by natural rosmarinic acid and its analogs for alleviation of skin lesions through downregulation of NF-κB pathway” (The Journal of Biological Chemistry, 2025).
Like-named read-outs stand apart in the source and are kept apart here.

Key:
hTRPV3 = target: T1, hTRPV3 (Homo sapiens, UniProt Q8NET8); test: whole-cell patch-clamp of hTRPV3 currents in HEK293T cells activated by 2-APB; format: cell-based; conditions: for inhibition at 50 µM: agonist 2-APB 50 μM
T1 construct: expressed in transfected cells; host or cells: HEK293T
T1 sequence (Q8NET8 1-790): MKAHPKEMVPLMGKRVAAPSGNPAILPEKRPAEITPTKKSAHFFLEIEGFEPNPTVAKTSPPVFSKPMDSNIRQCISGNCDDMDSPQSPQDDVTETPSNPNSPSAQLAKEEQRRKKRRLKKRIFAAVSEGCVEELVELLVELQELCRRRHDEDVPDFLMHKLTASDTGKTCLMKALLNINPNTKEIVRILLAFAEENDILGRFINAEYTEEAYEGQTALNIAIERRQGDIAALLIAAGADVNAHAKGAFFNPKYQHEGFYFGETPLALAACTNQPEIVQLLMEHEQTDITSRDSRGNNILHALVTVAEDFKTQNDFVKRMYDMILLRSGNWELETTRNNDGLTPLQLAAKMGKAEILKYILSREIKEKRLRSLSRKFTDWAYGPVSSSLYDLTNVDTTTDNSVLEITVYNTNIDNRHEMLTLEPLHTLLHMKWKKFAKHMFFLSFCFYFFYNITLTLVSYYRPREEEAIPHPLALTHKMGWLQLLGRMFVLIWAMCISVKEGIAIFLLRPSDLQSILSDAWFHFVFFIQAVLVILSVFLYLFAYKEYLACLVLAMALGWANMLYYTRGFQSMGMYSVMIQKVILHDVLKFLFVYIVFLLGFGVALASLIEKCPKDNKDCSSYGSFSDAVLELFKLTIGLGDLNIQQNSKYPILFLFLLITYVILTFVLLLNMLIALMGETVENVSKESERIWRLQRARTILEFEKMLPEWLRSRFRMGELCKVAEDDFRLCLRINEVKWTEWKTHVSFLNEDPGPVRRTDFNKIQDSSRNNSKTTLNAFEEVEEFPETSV
Method: HEK293T cell line was obtained from the Cell Resource Center, Peking Union Medical College. HEK293T cells were maintained in Dulbecco’s modified Eagle’s medium (DMEM, Gibco) supplemented with 10% fetal bovine serum at 37 °C with 5% CO2. HEK293T cells were seeded onto glass coverslips 1 day in advance and transiently transfected with […] complementary deoxyribonucleic acids of human TRPV3 (hTRPV3, accession number NM_145068.4), hTRPV1 (accession number NM_080704.3), mTRPV2 (accession number NM_011706.2), hTRPV4 (accession number NM_021625.5), hTRPA1 (accession number NM_007332.3), and hTRPM8 (accession number NM_024080.5) through Lipofectamine 2000 (Invitrogen) following the manufacture’s protocol. The next day, determine the plasmid transfection status by observing green fluorescence based on expression of enhanced GFP as an indicator. All WT or mutant hTRPV3 complementary deoxyribonucleic acid plasmids were confirmed by DNA sequencing. When conducting experiments on HEK293T cells transfected with G573S point mutant TRPV3 plasmid, we replaced culture medium with or without compounds after 4 h of transfection and then observed green fluorescence of HEK293T cell after 10 h. As for the relative fluorescence intensity, we convert the image to 8 bit grayscale using ImageJ (Https://imagej.net/software/fiji/downloads) and set an appropriate threshold value to reduce background noise and enhance the image contrast.
All patch-clamp recordings were conducted 16 to 24 h after transfection using an EPC10 amplifier powered by PatchMaster software (HEKA) (https://www.heka.com/downloads/downloads_main.html#down_patchmaster) at room temperature. The borosilicate glass pipettes were pulled using a DMZ universal electrode puller (Zeitz-Instruments GmbH) to achieve the resistances of three to 5 MΩ (for whole-cell recordings) or five to 9 MΩ (for inside-out patch recordings). Currents were recorded at a potential ramp from −100 mV to +100 mV for 1000 ms with 1000-ms intervals (for whole-cell recordings) or a persistent potential of −60 mV (inside-out patch recordings). Both pipette solution and bath solution contained (in mM): 130 NaCl, 3 Hepes, and 0.2 EDTA (pH = 7.2–7.4). All recording data were analyzed using Igor Pro (Wave-metrics) (https://www.wavemetrics.com/order/order_igordownloads.htm) and Origin 8.6 (Origin Lab) (https://www.originlab.com/doc/zh/Quick-Help/Download-Installer).

[1] = test system: TRPV3, IL-6, TNF-α, and p-P65 protein expressions; test: Western blot of TRPV3 and NF-κB pathway proteins in mouse ear tissues; format: in vivo; conditions: topical ROSA 0.1, 1 and 10 mM; mouse ear tissues; day 5
Method: Skin sensitizer Car was dissolved in saline solution containing 30% ethanol. The dorsal skin or ear of mice was swabbed with 3% Car for four consecutive days. To investigate the effects of ROSA, it was diluted to concentration of 0.1/1/10 mM with saline and topically applied on the ear and dorsal skin once a day for 4 days. The control group only received swabs with the solvent.
Skin or ear skin tissues were homogenized in radioimmunoprecipitation assay buffer (Thermo Fisher Scientific) containing protease inhibitors at a ratio of 100:1 per 10 mg tissue and centrifuged at 15,000 rpm for 15 min. The protein concentration was quantified using a bicinchoninic acid kit (Thermo Fisher Scientific), followed by SDS-PAGE for Western blot analysis. Protein transfer was performed at 150 mA for 90 min, and the transferred membranes (Millipore) were incubated with primary antibodies (TRPV3 antibody, 1:1000, TNF-α antibody, 1:1000, IL-6 antibody, 1:2500, P65 antibody, 1:1000 and p-P65 antibody, 1:1000) in 5% skim milk (Becton, Dickinson and Company). […] Images were quantified using the Image Lab software (https://www.bio-rad.com/zh-cn/product/image-lab-software?ID=KRE6P5E8Z).

hTRPV4 = target: T2, hTRPV4 (Homo sapiens, UniProt Q9HBA0); test: whole-cell patch-clamp of hTRPV4 currents activated by GSK101; format: cell-based; conditions: ROSA 50 μM; agonist GSK101 100 nM; read-out: inhibition of TRPV4 currents
T2 construct: expressed in transfected cells; host or cells: HEK293T
T2 sequence (Q9HBA0 whole entry): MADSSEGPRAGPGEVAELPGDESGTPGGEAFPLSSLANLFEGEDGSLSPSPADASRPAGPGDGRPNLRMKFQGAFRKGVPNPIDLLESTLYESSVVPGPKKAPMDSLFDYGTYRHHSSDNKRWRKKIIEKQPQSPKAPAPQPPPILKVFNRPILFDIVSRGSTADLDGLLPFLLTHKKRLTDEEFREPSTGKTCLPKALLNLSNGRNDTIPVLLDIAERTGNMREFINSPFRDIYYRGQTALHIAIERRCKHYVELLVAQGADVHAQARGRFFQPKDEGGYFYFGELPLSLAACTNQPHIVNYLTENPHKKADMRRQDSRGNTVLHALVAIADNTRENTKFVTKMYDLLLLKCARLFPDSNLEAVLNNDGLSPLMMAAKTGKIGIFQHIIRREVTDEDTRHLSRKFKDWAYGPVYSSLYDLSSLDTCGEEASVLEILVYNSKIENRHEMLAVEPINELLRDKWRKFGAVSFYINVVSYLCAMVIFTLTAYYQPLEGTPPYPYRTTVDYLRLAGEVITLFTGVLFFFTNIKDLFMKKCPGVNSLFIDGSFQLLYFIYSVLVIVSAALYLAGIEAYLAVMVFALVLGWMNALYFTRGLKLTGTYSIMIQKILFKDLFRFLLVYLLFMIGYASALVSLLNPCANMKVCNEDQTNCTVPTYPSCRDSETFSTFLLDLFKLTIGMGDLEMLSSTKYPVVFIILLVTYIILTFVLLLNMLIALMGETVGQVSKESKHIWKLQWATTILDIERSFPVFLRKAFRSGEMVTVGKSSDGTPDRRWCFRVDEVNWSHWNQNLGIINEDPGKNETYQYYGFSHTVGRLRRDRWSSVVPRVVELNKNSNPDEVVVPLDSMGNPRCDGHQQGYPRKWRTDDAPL
Method: (§1) HEK293T cell line was obtained from the Cell Resource Center, Peking Union Medical College. HEK293T cells were maintained in Dulbecco’s modified Eagle’s medium (DMEM, Gibco) supplemented with 10% fetal bovine serum at 37 °C with 5% CO2. […] The next day, determine the plasmid transfection status by observing green fluorescence based on expression of enhanced GFP as an indicator. […] When conducting experiments on HEK293T cells transfected with G573S point mutant TRPV3 plasmid, we replaced culture medium with or without compounds after 4 h of transfection and then observed green fluorescence of HEK293T cell after 10 h. As for the relative fluorescence intensity, we convert the image to 8 bit grayscale using ImageJ (Https://imagej.net/software/fiji/downloads) and set an appropriate threshold value to reduce background noise and enhance the image contrast.
(§2) All patch-clamp recordings were conducted 16 to 24 h after transfection using an EPC10 amplifier powered by PatchMaster software (HEKA) (https://www.heka.com/downloads/downloads_main.html#down_patchmaster) at room temperature. […] Currents were recorded at a potential ramp from −100 mV to +100 mV for 1000 ms with 1000-ms intervals (for whole-cell recordings) or a persistent potential of −60 mV (inside-out patch recordings). […]

hTRPM8 = target: T3, hTRPM8 (Homo sapiens, UniProt Q7Z2W7); test: whole-cell patch-clamp of hTRPM8 currents activated by menthol; format: cell-based; conditions: ROSA 50 μM; agonist menthol 30 μM (legend: 500 μM)
T3 construct: expressed in transfected cells; host or cells: HEK293T
T3 sequence (Q7Z2W7 whole entry): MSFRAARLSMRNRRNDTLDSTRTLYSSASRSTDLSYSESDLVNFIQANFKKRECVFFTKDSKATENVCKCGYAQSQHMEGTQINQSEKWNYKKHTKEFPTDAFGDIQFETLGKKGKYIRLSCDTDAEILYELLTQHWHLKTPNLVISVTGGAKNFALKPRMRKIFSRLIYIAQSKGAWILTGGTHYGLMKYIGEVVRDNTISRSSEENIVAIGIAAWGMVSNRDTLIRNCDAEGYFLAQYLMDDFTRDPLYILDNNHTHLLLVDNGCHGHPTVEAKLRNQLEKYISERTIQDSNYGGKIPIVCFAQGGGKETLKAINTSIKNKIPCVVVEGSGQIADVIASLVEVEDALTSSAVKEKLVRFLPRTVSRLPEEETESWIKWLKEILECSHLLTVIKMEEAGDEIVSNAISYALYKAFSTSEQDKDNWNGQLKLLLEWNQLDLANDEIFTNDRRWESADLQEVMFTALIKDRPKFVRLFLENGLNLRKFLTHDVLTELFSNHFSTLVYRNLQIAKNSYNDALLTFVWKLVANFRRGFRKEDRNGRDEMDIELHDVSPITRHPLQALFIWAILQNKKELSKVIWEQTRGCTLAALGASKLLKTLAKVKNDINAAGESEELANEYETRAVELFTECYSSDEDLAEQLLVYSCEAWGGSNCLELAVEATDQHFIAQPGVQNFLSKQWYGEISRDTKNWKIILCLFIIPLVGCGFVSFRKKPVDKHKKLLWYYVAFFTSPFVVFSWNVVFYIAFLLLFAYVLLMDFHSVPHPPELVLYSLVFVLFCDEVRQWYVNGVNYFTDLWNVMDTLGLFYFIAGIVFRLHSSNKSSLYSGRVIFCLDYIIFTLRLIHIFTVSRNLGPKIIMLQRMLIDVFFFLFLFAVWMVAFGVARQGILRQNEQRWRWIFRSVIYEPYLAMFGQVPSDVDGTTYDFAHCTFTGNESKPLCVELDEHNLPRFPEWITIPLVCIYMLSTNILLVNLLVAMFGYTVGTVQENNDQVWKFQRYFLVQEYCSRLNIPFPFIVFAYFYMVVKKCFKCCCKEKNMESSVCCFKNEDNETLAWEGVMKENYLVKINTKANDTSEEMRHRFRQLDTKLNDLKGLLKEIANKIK
Method: as §1, §2

Work on O=C(/C=C/c1ccc(O)c(O)c1)O[C@H](Cc1ccc(O)c(O)c1)C(=O)O [ROSA, rosmarinic acid] yielded an IC50 (hTRPV3) of 12.4 ± 4.2 µM, an inhibition at 50 µM (hTRPV3; HEK-293T, ROSA 50 μM, Fig. 2G, read-out: inhibition of TRPV3 currents) of ~74.3% and an inhibition at 100 µM (hTRPV3; HEK-293T, ROSA 100 μM, 2-APB, WT, read-out: inhibition of macroscopic WT hTRPV3 currents) of 87%. The inhibition at 50 µM (hTRPV3; HEK-293T, compound 50 μM, Fig. 3I, n = 4-5, read-out: inhibition of hTRPV3 currents) was ~75.3%, the “protein expressions of TRPV3, IL-6, TNF-α, and p-P65 induced by Car” value [1] was “downregulated the upregulation” and the inhibition at 50 µM (hTRPV4) was 2 ± 7.3%. For the same molecule, the “inhibition of TRPM8 currents” value (hTRPM8) was 0.7 ± 6.7%.
